Measured values taken from patent US20060287273A1, “Methods and reagents for inhibiting cell proliferation” (priority 2005, published 2006).

System: MDA-MB-435S cells
Test: TUNEL assay analyzed by FACS (apoptosis)
Assay type: cell-based, human
Details: 48 hours post-transfection; staurosporine 1 uM; versus control siRNA
Procedure: To examine this possibility, we utilized the TUNEL assay, which measures the appearance of free DNA ends that are the result of DNA fragmentation that occurs in the latter stages of apoptosis. MDA-MB-435S cells in 6 well dishes were transfected with the corresponding siRNA or treated with 1 uM staurosporine. 48 hours post-transfection, any detached cells were combined with cells detached using trypsin and the cells were washed, fixed with paraformaldehyde, subjected to TUNEL assay, and analyzed by FACS. […] Cells to be assayed were trypsinized, washed twice with PBS, followed by fixation for 20 min. in 1.5% paraformaldehyde in PBS at 4° C. with gentle mixing. The cells were then washed twice with PBS, suspended in 70% ethanol at 4° C., and stored at −20° C. until assayed. When assayed, the cells were washed twice with PBS and then resuspended in 50 μl of Tunel assay buffer consisting of 100 mM potassium cacodylate (pH 7.2), 2 mM CoCl2, 0.2 mM dithiotheitol, 3.3 nM fluorescein-conjugated dUTP, 13 nM DATP and 11 units of terminal deoxynucleotidyl transferase for 90 minutes at 37° C. The cells were then washed twice with PBS and analyzed by FACS sorting.

Compound: CN[C@@H]1C[C@H]2O[C@@](C)([C@@H]1OC)n1c3ccccc3c3c4c(c5c6ccccc6n2c5c31)C(=O)NC4 [Staurosporine]
- apoptosis, incorporation of fluorescein-labeled dUTP: most dramatic increase in apoptotic cells
